Converted amounts (≈) assume the structure as drawn. Read-outs that look alike come from different tables or passages of the source.
What was measured:
Type in all cases: cell-based
K. oxytoca = test: MIC, dilutions in liquid medium, alone and combined with NXL105; settings: Klebsiella oxytoca, read-out: MIC
E. coli = test: microbe, parasite or virus in culture; settings: Escherichia coli
Procedure: (§1) In vitro activity, method of dilutions in liquid medium:
(§2) A series of test 96-well microtiter plates are prepared in which the same quantity of sterile nutritive medium is distributed. […] After 24 h of incubation in a 37° C. oven, growth inhibition is evaluated by transillumination, which makes it possible to determine the minimum inhibitory concentrations (MICS) expressed in μg/ml.

C. freundii = test: MIC, dilutions in liquid medium, alone and combined with NXL105; settings: Citrobacter freundii, read-out: MIC
Pseudomonas aeruginosa = test: as above; settings: Pseudomonas aeruginosa
Procedure: as §1
A series of test 96-well microtiter plates are prepared in which the same quantity of sterile nutritive medium is distributed. Increasing quantities of the compound to be studied, namely the antibacterial compound alone and the inventive combination with the compound of formula (I) of example 1, are distributed in each plate in the respective proportions 2:1 and 4:1, and then each plate is inoculated with a bacterial strain of Pseudomonas aeruginosa. After 24 h of incubation in a 37° C. oven, growth inhibition is evaluated by transillumination, which makes it possible to determine the minimum inhibitory concentrations (MICS) expressed in μg/ml.

K. pneumoniae = test: as above; settings: Klebsiella pneumoniae, read-out: MIC
Procedure: as §1, §2

E. cloacae = test: as above; settings: Enterobacter cloacae, read-out: MIC
Procedure: as §1, §2

CC(C)(O/N=C(\C(=O)N[C@@H]1C(=O)N2C(C(=O)[O-])=C(C[n+]3ccccc3)CS[C@H]12)c1csc(N)n1)C(=O)O [Ceftazidime]
MIC (K. oxytoca; K. oxytoca 1431, TEM-129): > 32 µg/mL
MIC (K. oxytoca; K. oxytoca 16944, OXY-2, TEM-1): > 32 µg/mL
MIC (E. coli; 24 h, E. coli 2138, KPC-2 + TEM-1): > 32 µg/mL
MIC (E. coli; 24 h, E. coli (no alias), CTX-M-15 + TEM-1 + OXA-1): > 32 µg/mL
MIC (E. coli; 24 h, E. coli IND, VEB-1 + CMY-2): > 32 µg/mL
MIC (E. coli; 24 h, E. coli TN06, CTX-M-2 + TEM-1): 16 µg/mL
MIC (E. coli; 24 h, E. coli TN13, CTX-M-14 + CMY-2 + TEM-1): > 32 µg/mL
MIC (E. coli; 24 h, E. coli Tunisie clone E4, CTX-M-16 + TEM-1): > 32 µg/mL
MIC (E. coli; E. coli (no alias), Cephalosporinase, read-out: MIC): > 32 µg/mL
MIC (E. coli; E. coli (no alias), SHV-4): > 32 µg/mL
MIC (E. coli; E. coli (no alias), TEM-3): 32 µg/mL (≈ 58.5 µM)
MIC (C. freundii; 24 h, C. freundii (no alias), AmpC + TEM-1): > 32 µg/mL
MIC (C. freundii; C. freundii (no alias, table row r121), AmpC): > 32 µg/mL
MIC (C. freundii; C. freundii (no alias, table row r122), AmpC): > 32 µg/mL
MIC (C. freundii; C. freundii (no alias, table row r123), AmpC): > 32 µg/mL
MIC (C. freundii; C. freundii (no alias, table row r125), AmpC): 16 µg/mL
MIC (Pseudomonas aeruginosa; ATCC27853, P. aeruginosa ATCC 27853): 0.5 µg/mL
MIC (Pseudomonas aeruginosa; P. aeruginosa 391HG2): > 32 µg/mL
MIC (Pseudomonas aeruginosa; P. aeruginosa 391HG21): > 32 µg/mL
MIC (Pseudomonas aeruginosa; P. aeruginosa 391HG38): > 32 µg/mL
MIC (Pseudomonas aeruginosa; P. aeruginosa 391HG39): 1 µg/mL
MIC (Pseudomonas aeruginosa; P. aeruginosa 391HG58): > 32 µg/mL
MIC (Pseudomonas aeruginosa; P. aeruginosa 391HG118): 4 µg/mL
MIC (Pseudomonas aeruginosa; P. aeruginosa 391HG123): 32 µg/mL
MIC (Pseudomonas aeruginosa; P. aeruginosa 391HG158): > 32 µg/mL
MIC (Pseudomonas aeruginosa; P. aeruginosa 391HG271): > 32 µg/mL
MIC (Pseudomonas aeruginosa; P. aeruginosa 391HG329): > 32 µg/mL
MIC (Pseudomonas aeruginosa; P. aeruginosa 391K1455): 32 µg/mL
MIC (Pseudomonas aeruginosa; P. aeruginosa 391K1523): 16 µg/mL
MIC (Pseudomonas aeruginosa; P. aeruginosa 391K1525): 32 µg/mL
MIC (Pseudomonas aeruginosa; P. aeruginosa 391K1536): 32 µg/mL
MIC (Pseudomonas aeruginosa; P. aeruginosa 391K2376): 32 µg/mL
MIC (Pseudomonas aeruginosa; P. aeruginosa 391K2379): 32 µg/mL
MIC (Pseudomonas aeruginosa; P. aeruginosa 391K2415): 32 µg/mL
MIC (Pseudomonas aeruginosa; P. aeruginosa 391KB9): > 32 µg/mL
MIC (Pseudomonas aeruginosa; P. aeruginosa 391KB14): 32 µg/mL
MIC (Pseudomonas aeruginosa; P. aeruginosa 391KB21): > 32 µg/mL
MIC (Pseudomonas aeruginosa; P. aeruginosa 391KB33): 32 µg/mL
MIC (Pseudomonas aeruginosa; P. aeruginosa 391KB38): > 32 µg/mL
MIC (Pseudomonas aeruginosa; P. aeruginosa 391KB62): > 32 µg/mL
MIC (Pseudomonas aeruginosa; P. aeruginosa 391KB68): > 32 µg/mL
MIC (Pseudomonas aeruginosa; P. aeruginosa 391KB90): > 32 µg/mL
MIC (Pseudomonas aeruginosa; P. aeruginosa 391KB91): > 32 µg/mL
MIC (Pseudomonas aeruginosa; P. aeruginosa 391KB99): > 32 µg/mL
MIC (Pseudomonas aeruginosa; P. aeruginosa 391KB103): 32 µg/mL
MIC (Pseudomonas aeruginosa; P. aeruginosa 391KB105): > 32 µg/mL
MIC (Pseudomonas aeruginosa; P. aeruginosa 391KB106): 32 µg/mL
MIC (Pseudomonas aeruginosa; P. aeruginosa 391KB107): > 32 µg/mL
MIC (Pseudomonas aeruginosa; P. aeruginosa 391KB114): > 32 µg/mL
MIC (Pseudomonas aeruginosa; P. aeruginosa 391KB127): > 32 µg/mL
MIC (Pseudomonas aeruginosa; P. aeruginosa 391KB135): > 32 µg/mL
MIC (Pseudomonas aeruginosa; P. aeruginosa 391KB136): > 32 µg/mL
MIC (Pseudomonas aeruginosa; P. aeruginosa 391KB137): > 32 µg/mL
MIC (Pseudomonas aeruginosa; P. aeruginosa 391KB138): > 32 µg/mL
MIC (Pseudomonas aeruginosa; P. aeruginosa 391KB139): > 32 µg/mL
MIC (Pseudomonas aeruginosa; P. aeruginosa 391KB140): 16 µg/mL
MIC (Pseudomonas aeruginosa; P. aeruginosa 391KB141): > 32 µg/mL
MIC (Pseudomonas aeruginosa; P. aeruginosa 391KB142): > 32 µg/mL
MIC (Pseudomonas aeruginosa; P. aeruginosa 391KB143): > 32 µg/mL
MIC (Pseudomonas aeruginosa; P. aeruginosa 391KB144): > 32 µg/mL
MIC (Pseudomonas aeruginosa; P. aeruginosa 391QBR2): > 32 µg/mL
MIC (Pseudomonas aeruginosa; P. aeruginosa 391QBR3): > 32 µg/mL
MIC (Pseudomonas aeruginosa; P. aeruginosa 391QBR4): > 32 µg/mL
MIC (Pseudomonas aeruginosa; P. aeruginosa 391QBR5): > 32 µg/mL
MIC (Pseudomonas aeruginosa; P. aeruginosa 391QBR7): > 32 µg/mL
MIC (Pseudomonas aeruginosa; P. aeruginosa 391QBR8): > 32 µg/mL
MIC (Pseudomonas aeruginosa; P. aeruginosa 391QBR9): > 32 µg/mL
MIC (Pseudomonas aeruginosa; P. aeruginosa 391QBR10): > 32 µg/mL
MIC (Pseudomonas aeruginosa; P. aeruginosa C3719): > 32 µg/mL
MIC (K. pneumoniae; 24 h, K. pneumoniae 60, SHV-2 + TEM-2 + PER): > 32 µg/mL
MIC (K. pneumoniae; 24 h, K. pneumoniae 157, SHV-5 + TEM-26): > 32 µg/mL
MIC (K. pneumoniae; 24 h, K. pneumoniae 181, SHV-5 + TEM-10): > 32 µg/mL
MIC (K. pneumoniae; 24 h, K. pneumoniae 236, SHV-5 + TEM-10): > 32 µg/mL
MIC (K. pneumoniae; 24 h, K. pneumoniae 238, SHV-2 + TEM-12 + CTX-M-2): > 32 µg/mL
MIC (K. pneumoniae; 24 h, K. pneumoniae 243, SHV-5 + TEM-63): > 32 µg/mL
MIC (K. pneumoniae; 24 h, K. pneumoniae 253, SHV-2 + TEM-12 + CTX-M-2): > 32 µg/mL
MIC (K. pneumoniae; 24 h, K. pneumoniae 427, SHV-1 + TEM-1B + CTX-M-3): > 32 µg/mL
MIC (K. pneumoniae; 24 h, K. pneumoniae 441, SHV-1 + TEM-2 + PER): > 32 µg/mL
MIC (K. pneumoniae; 24 h, K. pneumoniae 444, SHV-5 + TEM-2 + PER): > 32 µg/mL
MIC (K. pneumoniae; 24 h, K. pneumoniae 449, SHV-1 + TEM-2 + PER): > 32 µg/mL
MIC (K. pneumoniae; 24 h, K. pneumoniae 465, TEM-1B + CTX-M-2): > 32 µg/mL
MIC (K. pneumoniae; 24 h, K. pneumoniae 1734, FOX-3 + TEM-1): > 32 µg/mL
MIC (K. pneumoniae; 24 h, K. pneumoniae 9701, CMY-4 + TEM-1): > 32 µg/mL
MIC (K. pneumoniae; 24 h, K. pneumoniae KOL, MOX-2 + SHV-5 + TEM-1): > 32 µg/mL
MIC (K. pneumoniae; 24 h, K. pneumoniae Patient 1BHR, VIM-4 + CTX-M-15 = CMY-4 + TEM-1): > 32 µg/mL
MIC (K. pneumoniae; 24 h, K. pneumoniae Patient F, VIM-1 + SHV-5): > 32 µg/mL
MIC (K. pneumoniae; 24 h, K. pneumoniae SLK54, ACC-1 + TEM-1): > 32 µg/mL
MIC (K. pneumoniae; 24 h, K. pneumoniae TN58467, DHA-1 + SHV-2a + TEM-1): > 32 µg/mL
MIC (K. pneumoniae; 24 h, K. pneumoniae Tunisie clone K1, CTX-M-16 + OXA-1): > 32 µg/mL
MIC (K. pneumoniae; 24 h, K. pneumoniae Tunisie clone K4, CTX-M-15 + TEM-1 + OXA-1): > 32 µg/mL
MIC (K. pneumoniae; ATCC700603, K. pneumoniae ATCC 700603, SHV-18): > 32 µg/mL
MIC (K. pneumoniae; K. pneumoniae 26, SHV-5): > 32 µg/mL
MIC (K. pneumoniae; K. pneumoniae CL5761, KPC-3): > 32 µg/mL
MIC (K. pneumoniae; K. pneumoniae CL5762, KPC-3): > 32 µg/mL
MIC (K. pneumoniae; K. pneumoniae CL5763, KPC-3): > 32 µg/mL
MIC (K. pneumoniae; K. pneumoniae KP04, CTX-M-14): 32 µg/mL
MIC (K. pneumoniae; K. pneumoniae VA8, KPC-3): > 32 µg/mL
MIC (K. pneumoniae; K. pneumoniae VAKP, KPC-2): > 32 µg/mL
MIC (K. pneumoniae; K. pneumoniae YC, KPC-2): > 32 µg/mL
MIC (E. cloacae; 24 h, E. cloacae 7506, KPC-2 + TEM-1 + KLUC-2): > 32 µg/mL
MIC (E. cloacae; E. cloacae (no alias), AmpC): > 32 µg/mL
MIC (E. cloacae; E. cloacae, AmpC): 32 µg/mL

Source: patent US20100092443A1, “NOVEL COMBINATIONS OF NITROGENATED HETEROCYCLIC ANTIBACTERIAL COMPOUNDS WITH OTHER ANTIBACTERIAL COMPOUNDS AND THE USE OF SAME AS DRUGS” (priority 2008, published 2010)
